Laboratory results published in patent publication US20220175766A1, “COMPOSITIONS AND METHODS OF TREATMENT” (GB004, Inc., priority 2019, published 2022).
Read-outs that look alike come from different tables or passages of the source.

How the values were obtained:
[1] = Phase 1a multiple ascending dose study (oral solution): plasma pharmacokinetics; format: in vivo, human; settings: human, plasma, oral; for concentration at 8 h: Hour 8; for concentration at 8 h / concentration at 12 h / concentration at 16 h / concentration at 24 h / concentration at 0.5 h / concentration at 1 h / concentration at 2 h / concentration at 3 h / concentration at 4 h / concentration at 6 h: read-out: Compound 1 concentration, Conc (SD); for concentration at 12 h: Hour 12; for concentration at 16 h: Hour 16; for concentration at 24 h: Hour 24; for AUC: read-out: AUC(0-τ), mean (SD); for concentration at 0.5 h: Hour 0.5; for concentration at 1 h: Hour 1; for concentration at 2 h: Hour 2; for concentration at 3 h: Hour 3; for concentration at 4 h: Hour 4; for concentration at 6 h: Hour 6; for AUC(0-t): read-out: AUC(0-t), mean; for Tmax: read-out: Tmax, median (range)
Protocol: Compound 1 was administered as the HCl-salt (prepared analogously to Example 2.1).
The secondary objective was to characterize the multiple dose pharmacokinetic (PK) parameters of Compound 1, after ascending doses. Secondary endpoints included determination of PK parameters in plasma and urine, fecal excretion and assessment of colonic biopsy samples.
Blood samples were collected at the following time points relative to dose administration on Day 1 and Day 7: pre-dose; 0.5, 1, 2, 3, 4, 6, 8, 12, 16 and 24 hours post dose. Analysis and concentration determinations were performed using a liquid chromatography-mass spectrometry and liquid chromatography-tandem mass spectrometry (LC/MS/MS) method.

[2] = tested on: HIF-1α; assay: Phase 1a multiple ascending dose study: proportion of HIF-1α positive cells in colonic biopsies (immunohistochemistry, manual assessment); format: in vivo, human; settings: for Proportion of HIF-1α Positive Cells, CFB (change from baseline), Mean / Proportion of HIF-1α Positive Cells, CFB (change from baseline), Median: baseline to Day 8
Protocol: Manual assessment of the proportion of HIF-1α positive cells was conducted in 10 regions of interest, selected in whole tissue sections. (Note, the study was amended to add this immunohistochemistry analysis; thus data is only available for cohorts 4 and 5 (120 mg and 60 mg), cohorts 1-3 lacked this type of biopsy).
Table 50 presents the proportions of HIF-1α positive cells evaluated at baseline and Day 8, and the change from baseline to Day 8 of the proportion of HIF-1α positive cells. The mean proportion of HIF-1α positive cells ranged from 1% to 80% across all experimental groups.

[3] = tested on: EPO or VEGF; assay: Phase 1a multiple dose tablet study (Example 26): EPO and VEGF change from baseline to Day 7; set-up: species or system human; settings: in vivo
[4] = 120 mg, Cohort 2, 120 mg, Day 1
[5] = 120 mg, Cohort 4, 120 mg once daily, Day 7
[6] = 120 mg, Cohort 4, 120 mg, Day 1
[7] = 240 mg, Cohort 3, 240 mg once daily, Day 7
[8] = 240 mg, Cohort 3, 240 mg, Day 1
[9] = Pooled (60 mg and 120 mg), Baseline
[10] = Pooled (60 mg and 120 mg), Day 8

**Q.** Which concentration at 8 h [1, 4] does the source give for `CC(C)(C)OC(=O)N1CCN(Cc2ccn(Cc3ccc(Cl)cc3)c(=O)c2O)CC1` [Compound 1, tert-butyl 4-((1-(4-chlorobenzyl)-3-hydroxy-2-oxo-1,2-dihydropyridin-4-yl)methyl)piperazine-1-carboxylate] here?
**A.** Its concentration at 8 h is 0 ng/mL.

**Q.** What about the concentration at 12 h [1, 4] of the same compound?
**A.** The concentration at 12 h was 0 ng/mL.

**Q.** What about the concentration at 16 h [1, 4] of the same compound?
**A.** The concentration at 16 h was 0 ng/mL.

**Q.** And the concentration at 24 h [1, 4]?
**A.** The concentration at 24 h was 0 ng/mL.

**Q.** And the AUC [1, 4]?
**A.** The AUC was 27.9 ng·h/mL.

**Q.** What about the Cmax ([1]; 120 mg, Cohort 2, 120 mg, Day 1, read-out: Cmax, mean (SD)) of the same compound?
**A.** Its Cmax is 9.54 ng/mL.

**Q.** What about the concentration at 0.5 h [1, 5] of the same compound?
**A.** The concentration at 0.5 h was 15.6 ng/mL.

**Q.** And the concentration at 1 h [1, 5]?
**A.** The concentration at 1 h was 9.34 ng/mL.

**Q.** What about the concentration at 2 h [1, 5] of the same compound?
**A.** The concentration at 2 h was 5.32 ng/mL.

**Q.** And the concentration at 3 h [1, 5]?
**A.** The concentration at 3 h was 3.69 ng/mL.

**Q.** And the concentration at 4 h [1, 5]?
**A.** Its concentration at 4 h is 2.98 ng/mL.

**Q.** And the concentration at 6 h [1, 5]?
**A.** Its concentration at 6 h is 3.3 ng/mL.

**Q.** And the concentration at 8 h [1, 5]?
**A.** Its concentration at 8 h is 3.03 ng/mL.

**Q.** What about the concentration at 12 h [1, 5] of the same compound?
**A.** The concentration at 12 h was 2.59 ng/mL.

**Q.** What about the concentration at 16 h [1, 5] of the same compound?
**A.** The concentration at 16 h was 2.26 ng/mL.

**Q.** And the concentration at 24 h [1, 5]?
**A.** Its concentration at 24 h is 1.92 ng/mL.

**Q.** What about the AUC(0-t) [1, 5] of the same compound?
**A.** Its AUC(0-t) is 75.8 ng·h/mL.

**Q.** And the Cmax ([1]; 120 mg, Cohort 4, 120 mg once daily, Day 7, read-out: Cmax, mean)?
**A.** Its Cmax is 15.6 ng/mL.

**Q.** What about the concentration at 0.5 h [1, 6] of the same compound?
**A.** The concentration at 0.5 h was 11.9 ng/mL.

**Q.** What about the concentration at 1 h [1, 6] of the same compound?
**A.** Its concentration at 1 h is 8.03 ng/mL.

**Q.** What about the concentration at 3 h [1, 6] of the same compound?
**A.** The concentration at 3 h was 2.68 ng/mL.

**Q.** And the concentration at 4 h [1, 6]?
**A.** Its concentration at 4 h is 1.48 ng/mL.

**Q.** And the concentration at 6 h [1, 6]?
**A.** The concentration at 6 h was 1.14 ng/mL.

**Q.** And the concentration at 8 h [1, 6]?
**A.** Its concentration at 8 h is 0 ng/mL.

**Q.** What about the concentration at 12 h [1, 6] of the same compound?
**A.** Its concentration at 12 h is 0 ng/mL.

**Q.** What about the concentration at 16 h [1, 6] of the same compound?
**A.** The concentration at 16 h was 0 ng/mL.

**Q.** And the concentration at 24 h [1, 6]?
**A.** The concentration at 24 h was 0 ng/mL.

**Q.** What about the AUC [1, 6] of the same compound?
**A.** The AUC was 38.1 ng·h/mL.

**Q.** What about the Cmax ([1]; 120 mg, Cohort 4, 120 mg, Day 1, read-out: Cmax, mean (SD)) of the same compound?
**A.** Its Cmax is 12 ng/mL.

**Q.** And the concentration at 0.5 h [1, 7]?
**A.** Its concentration at 0.5 h is 28.5 ng/mL.

**Q.** What about the concentration at 1 h [1, 7] of the same compound?
**A.** Its concentration at 1 h is 20.5 ng/mL.

**Q.** And the concentration at 2 h [1, 7]?
**A.** The concentration at 2 h was 10.3 ng/mL.

**Q.** And the concentration at 3 h [1, 7]?
**A.** Its concentration at 3 h is 7.61 ng/mL.

**Q.** What about the concentration at 4 h [1, 7] of the same compound?
**A.** The concentration at 4 h was 6.99 ng/mL.

**Q.** What about the concentration at 6 h [1, 7] of the same compound?
**A.** Its concentration at 6 h is 6.8 ng/mL.

**Q.** What about the concentration at 8 h [1, 7] of the same compound?
**A.** Its concentration at 8 h is 6.44 ng/mL.

**Q.** What about the concentration at 12 h [1, 7] of the same compound?
**A.** Its concentration at 12 h is 4.66 ng/mL.

**Q.** What about the concentration at 16 h [1, 7] of the same compound?
**A.** The concentration at 16 h was 3.27 ng/mL.

**Q.** What about the concentration at 24 h [1, 7] of the same compound?
**A.** The concentration at 24 h was 2.53 ng/mL.

**Q.** And the AUC(0-t) [1, 7]?
**A.** Its AUC(0-t) is 139 ng·h/mL.

**Q.** And the Cmax ([1]; 240 mg, Cohort 3, 240 mg once daily, Day 7, read-out: Cmax, mean)?
**A.** Its Cmax is 28.8 ng/mL.

**Q.** What about the concentration at 0.5 h [1, 8] of the same compound?
**A.** Its concentration at 0.5 h is 25.7 ng/mL.

**Q.** What about the concentration at 1 h [1, 8] of the same compound?
**A.** The concentration at 1 h was 15 ng/mL.

**Q.** And the concentration at 3 h [1, 8]?
**A.** Its concentration at 3 h is 5.97 ng/mL.

**Q.** What about the concentration at 4 h [1, 8] of the same compound?
**A.** The concentration at 4 h was 4.12 ng/mL.

**Q.** And the concentration at 6 h [1, 8]?
**A.** Its concentration at 6 h is 3.39 ng/mL.

**Q.** What about the concentration at 8 h [1, 8] of the same compound?
**A.** The concentration at 8 h was 3.02 ng/mL.

**Q.** And the concentration at 12 h [1, 8]?
**A.** The concentration at 12 h was 3.13 ng/mL.

**Q.** And the concentration at 16 h [1, 8]?
**A.** Its concentration at 16 h is 2.25 ng/mL.

**Q.** What about the concentration at 24 h [1, 8] of the same compound?
**A.** Its concentration at 24 h is 1.35 ng/mL.

**Q.** What about the AUC [1, 8] of the same compound?
**A.** The AUC was 91.5 ng·h/mL.

**Q.** What about the Cmax ([1]; 240 mg, Cohort 3, 240 mg, Day 1, read-out: Cmax, mean (SD)) of the same compound?
**A.** The Cmax was 25.7 ng/mL.

**Q.** What about the Tmax ([1]; Cohort 2, 120 mg, Day 1) of the same compound?
**A.** The Tmax was 30 min.

**Q.** And the Tmax ([1]; Cohort 3, 240 mg, Day 1)?
**A.** Its Tmax is 30 min.

**Q.** What about the Tmax ([1]; Cohort 5, 60 mg, Day 1) of the same compound?
**A.** Its Tmax is 30 min.

**Q.** And the “Proportion of HIF-1α Positive Cells, Mean” value ([2]; 60 mg, Baseline)?
**A.** The value was 6.3%.

**Q.** And the “Proportion of HIF-1α Positive Cells, Median” value ([2]; 60 mg, Baseline)?
**A.** Its value is 5.8%.

**Q.** What about the “Proportion of HIF-1α Positive Cells, Mean” value ([2]; 60 mg, Day 8) of the same compound?
**A.** The value was 44.5%.

**Q.** What about the “Proportion of HIF-1α Positive Cells, Median” value ([2]; 60 mg, Day 8) of the same compound?
**A.** Its value is 46.5%.

**Q.** What about the “Proportion of HIF-1α Positive Cells, CFB (change from baseline), Mean” value (from here on “Proportion … (change from baseline), Mean”) ([2]; 60 mg) of the same compound?
**A.** The value was 38.3%.

**Q.** And the “Proportion of HIF-1α Positive Cells, CFB (change from baseline), Median” value (from here on “Proportion … (change from baseline), Median”) ([2]; 60 mg)?
**A.** The value was 38.0%.

**Q.** What about the “Proportion of HIF-1α Positive Cells, Mean” value ([2]; 120 mg, Baseline) of the same compound?
**A.** Its value is 12.0%.

**Q.** And the “Proportion of HIF-1α Positive Cells, Median” value ([2]; 120 mg, Baseline)?
**A.** Its value is 6.3%.

**Q.** What about the “Proportion of HIF-1α Positive Cells, Mean” value ([2]; 120 mg, Day 8) of the same compound?
**A.** The value was 44.1%.

**Q.** What about the “Proportion of HIF-1α Positive Cells, Median” value ([2]; 120 mg, Day 8) of the same compound?
**A.** Its value is 45.3%.

**Q.** What about the “Proportion … (change from baseline), Mean” value ([2]; 120 mg) of the same compound?
**A.** The value was 32.1%.

**Q.** What about the “Proportion … (change from baseline), Median” value ([2]; 120 mg) of the same compound?
**A.** The value was 28.5%.

**Q.** And the “Proportion of HIF-1α Positive Cells, Mean” value [2, 9]?
**A.** The value was 9.1%.

**Q.** What about the “Proportion of HIF-1α Positive Cells, Median” value [2, 9] of the same compound?
**A.** Its value is 5.8%.

**Q.** And the “Proportion of HIF-1α Positive Cells, Mean” value [2, 10]?
**A.** The value was 44.3%.

**Q.** And the “Proportion of HIF-1α Positive Cells, Median” value [2, 10]?
**A.** Its value is 45.3%.

**Q.** And the “Proportion … (change from baseline), Mean” value ([2]; Pooled (60 mg and 120 mg))?
**A.** The value was 35.2%.

**Q.** What about the “Proportion … (change from baseline), Median” value ([2]; Pooled (60 mg and 120 mg)) of the same compound?
**A.** Its value is 29.0%.

**Q.** What about the “Increase from baseline to Day 8 in proportion of HIF-1α positive cells [mean±SD]” value ([2]; combined group (Pooled; 120 mg and 60 mg cohorts)) of the same compound?
**A.** Its value is 35.2+28.8.

**Q.** And the “Effects on EPO or VEGF from baseline to Day 7 compared to placebo” value [3]?
**A.** The value was “no consistent or dose-related effects”.
